Measurements as given in US20230143612A1 (Arbutus Biopharma Corporation, priority 2020, published 2023).

What follows are compounds tested against PD-L1 His protein / PD-1 Fc protein (Homo sapiens, UniProt Q9NZQ7) (assay: HTRF Assay (PD-1/PD-L1 interaction)). Details: PD-L1 His 6 nM, PD-1 Fc 6 nM.
Sequence of PD-L1 His protein / PD-1 Fc protein (Q9NZQ7 19-238 limits assumed): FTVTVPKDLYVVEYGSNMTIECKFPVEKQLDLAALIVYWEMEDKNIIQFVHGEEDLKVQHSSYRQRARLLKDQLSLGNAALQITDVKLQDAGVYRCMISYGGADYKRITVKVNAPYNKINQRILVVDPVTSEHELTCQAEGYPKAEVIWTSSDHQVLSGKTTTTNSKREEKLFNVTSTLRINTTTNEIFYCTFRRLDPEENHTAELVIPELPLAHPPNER
Format: binding
Outline: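 Compounds tested from 20 μM down to 0.001 μM (3-fold) against 6 nM PD-L1 His and 6 nM PD-1 Fc, 15 min room temperature incubation. Detection after 1 h at room temperature with Tb cryptate anti-6HIS and XL665 anti-human IgG reagents (mixture at 0.35 nM and 6.7 nM), HTRF signal.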
`COc1nc(-c2cccc(-c3cccc(-c4ccn5c(=O)c(CN6C[C@H](O)C[C@@H]6C(=O)O)cnc5c4)c3Cl)c2Cl)ccc1CNC[C@@H]1CCC(=O)N1` [Example 134, (2R,4R)-1-((8-(2,2′-Dichloro-3′-(6-methoxy-5-(((((S)-5-oxopyrrolidin-2-yl)methyl)amino)methyl)pyridin-2-yl)-[1,1′-biphenyl]-3-yl)-4-oxo-4H-pyrido[1,2-a]pyrimidin-3-yl)methyl)-4-hydroxypyrrolidine-2-carboxylic acid] gave an IC50 of 1.1 nM.
For `COc1nc(-c2cccc(-c3cccc(-c4ccn5cc(CNC[C@@H]6CCC(=O)N6)nc5c4)c3Cl)c2Cl)ccc1CNC[C@@H]1CCC(=O)N1` [Example 357, (5S)-5-[[[6-[2-Chloro-3-[2-chloro-3-[2-[[[(2S)-5-oxopyrrolidin-2-yl]methylamino]methyl]imidazo[1,2-a]pyridin-7-yl]phenyl]phenyl]-2-methoxy-3-pyridyl]methylamino]methyl]pyrrolidin-2-one], the IC50 was 50 nM.
`COc1nc(-c2cccc(-c3cccc(-c4ccn5c(=O)c(CNC[C@@H]6C[C@@H]6CO)cnc5c4)c3Cl)c2Cl)ccc1CNC[C@@H]1CCC(=O)N1` [Example 409, 8-(2,2′-Dichloro-3′-(6-methoxy-5-(((((S)-5-oxopyrrolidin-2-yl)methyl)amino)methyl)pyridin-2-yl)-[1,1′-biphenyl]-3-yl)-3-(((((1R,2S)-2-(hydroxymethyl)cyclopropyl)methyl)amino)methyl)-4H-pyrido[1,2-a]pyrimidin-4-one] showed an IC50 of 0.2 nM.
`COc1nc(-c2cccc(-c3cccc(-c4ccn5c(=O)c(CNC[C@@H]6CCC(=O)N6)cnc5c4)c3C)c2C)ccc1CNC[C@@H]1CCC(=O)N1` [Example 31, 8-(3′-(6-Methoxy-5-(((((S)-5-oxopyrrolidin-2-yl)methyl)amino)methyl)pyridin-2-yl)-2,2′-dimethyl-[1,1′-biphenyl]-3-yl)-3-(((((S)-5-oxopyrrolidin-2-yl)methyl)amino)methyl)-4H-pyrido[1,2-a]pyrimidin-4-one] gave an IC50 of 2.3 nM.
In the case of `COc1nc(-c2cccc(-c3cccc(-c4ccc5c(n4)nc(CNC[C@@H]4CCC(=O)N4)n5C)c3Cl)c2Cl)ccc1CNC[C@@H]1CCC(=O)N1` [Example 312, (S)-5-((((6-(2,2′-Dichloro-3′-(1-methyl-2-(((((S)-5-oxopyrrolidin-2-yl)methyl)amino)methyl)-1H-imidazo[4,5-b]pyridin-5-yl)-[1,1′-biphenyl]-3-yl)-2-methoxypyridin-3-yl)methyl)amino)methyl)pyrrolidin-2-one], the IC50 is reported as 0.1 nM.
With `COC(=O)[C@H](CO)NCc1cnc2cc(-c3cccc(-c4cccc(-c5ccc(CNC[C@@H]6CCC(=O)N6)c(OC)n5)c4Cl)c3Cl)ccn2c1=O` [Example 101, Methyl ((8-(2,2′-dichloro-3′-(6-methoxy-5-(((((S)-5-oxopyrrolidin-2-yl)methyl)amino)methyl)pyridin-2-yl)-[1,1′-biphenyl]-3-yl)-4-oxo-4H-pyrido[1,2-a]pyrimidin-3-yl)methyl)-L-serinate] the IC50 was 2.1 nM.
For `COc1nc(-c2cccc(-c3cccc(-c4cc5c(=O)n(C)c(CN6CC(C)(O)C6)nn5c4)c3Cl)c2Cl)cc(Cl)c1CNC[C@@H]1CCC(=O)N1` [Example 492, (S)-6-(2,2′-Dichloro-3′-(4-chloro-6-methoxy-5-((((5-oxopyrrolidin-2-yl)methyl)amino)methyl)pyridin-2-yl)-[1,1′-biphenyl]-3-yl)-2-((3-hydroxy-3-methylazetidin-1-yl)methyl)-3-methylpyrrolo[2,1-f][1,2,4]triazin-4(3H)-one], the IC50 was 0.6 nM.
`COc1nc(-c2cccc(-c3cccc(-c4ccc5c(CNC6CCN(C(C)=O)CC6)cn(C)c5n4)c3Cl)c2Cl)ccc1CNC[C@@H]1CCC(=O)N1` [Example 415, (5S)-5-[[[6-[3-[3-[3-[[(1-Acetyl-4-piperidyl)amino]methyl]-1-methyl-pyrrolo[2,3-b]pyridin-6-yl]-2-chloro-phenyl]-2-chloro-phenyl]-2-methoxy-3-pyridyl]methylamino]methyl]pyrrolidin-2-one] gave an IC50 of 220 nM.
Work on `COC(=O)[C@H]1CCN(Cc2cnc3cc(-c4cccc(-c5cccc(-c6ccc(CNC[C@@H]7CCC(=O)N7)c(OC)n6)c5Cl)c4Cl)cc(C)n3c2=O)C1` [Example 295, (S)-Methyl 1-((8-(2,2′-dichloro-3′-(6-methoxy-5-(((((S)-5-oxopyrrolidin-2-yl)methyl)amino)methyl)pyridin-2-yl)-[1,1′-biphenyl]-3-yl)-6-methyl-4-oxo-4H-pyrido[1,2-a]pyrimidin-3-yl)methyl)pyrrolidine-3-carboxylate] yielded an IC50 of 0.1 nM.
`COc1nc(-c2cccc(-c3cccc(-c4cc5c(=O)n(C)c(CN(C)C[C@H](C)O)nn5c4)c3Cl)c2Cl)ccc1CNC[C@@H]1CCC(=O)N1` [Example 436, 6-(2,2′-dichloro-3′-(6-methoxy-5-(((((S)-5-oxopyrrolidin-2-yl)methyl)amino)methyl)pyridin-2-yl)-[1,1′-biphenyl]-3-yl)-2-((((S)-2-hydroxypropyl)(methyl)amino)methyl)-3-methylpyrrolo[2,1-f][1,2,4]triazin-4(3H)-one] gave an IC50 of 26 nM.
`O=C1CC[C@@H](CNCc2ccc(-c3cccc(-c4cccc(-c5ccn6c(=O)c(CNC[C@@H]7CCC(=O)N7)cnc6c5)c4Cl)c3Cl)cc2OC(F)(F)F)N1` [Example 87, 8-(2,2′-dichloro-4″-(((((S)-5-oxopyrrolidin-2-yl)methyl)amino)methyl)-3″-(trifluoromethoxy)-[1,1′:3′,1″-terphenyl]-3-yl)-3-(((((S)-5-oxopyrrolidin-2-yl)methyl)amino)methyl)-4H-pyrido[1,2-a]pyrimidin-4-one] showed an IC50 of 2.6 nM.
`Cc1c(COc2cc(OCc3cncc(C#N)c3)c(CNC[C@@H]3CCC(=O)N3)cc2Cl)cccc1-c1cccc(-c2ccn3c(=O)c(CNC[C@@H]4CCC(=O)N4)cnc3c2)c1C` [Example 12, 5-((4-Chloro-5-((2,2′-dimethyl-3′-(4-oxo-3-(((((S)-5-oxopyrrolidin-2-yl)methyl)amino)methyl)-4H-pyrido[1,2-a]pyrimidin-8-yl)-[1,1′-biphenyl]-3-yl)methoxy)-2-(((((S)-5-oxopyrrolidin-2-yl)methyl)amino)methyl)phenoxy)methyl)nicotinonitrile] gave an IC50 of 0.3 nM.
With `COc1nc(-c2cccc(-c3cccc(-c4ccc5c(CN(C)CCO)cn(C)c5n4)c3Cl)c2Cl)ccc1CNC[C@@H]1CCC(=O)N1` [Example 412, (5S)-5-[[[6-[2-Chloro-3-[2-chloro-3-[3-[[2-hydroxyethyl(methyl)amino]methyl]-1-methyl-pyrrolo[2,3-b]pyridin-6-yl]phenyl]phenyl]-2-methoxy-3-pyridyl]methylamino]methyl]pyrrolidin-2-one] the IC50 was 5.2 nM.
In the case of `COc1cc(-c2ccc(CNC[C@@H]3CCC(=O)N3)c(OC)n2)c(Cl)c(-c2cccc(-c3ccn4c(=O)c(CNC[C@@H]5CCC(=O)N5)cnc4c3)c2Cl)c1` [Example 146, 8-(2,2′-Dichloro-5′-methoxy-3′-(6-methoxy-5-(((((S)-5-oxopyrrolidin-2-yl)methyl)amino)methyl)pyridin-2-yl)-[1,1′-biphenyl]-3-yl)-3-(((((S)-5-oxopyrrolidin-2-yl)methyl)amino)methyl)-4H-pyrido[1,2-a]pyrimidin-4-one], the IC50 is reported as 240 nM.
